# Reference: patent US20230285504A1, “INHIBITION OF REPERFUSION INJURY WITH A PSD-95 INHIBITOR” (NONO INC., priority 2020, published 2023)
# pEC50, pIC50: −log10 of the molar value. Entries after “also recorded” stand apart in the source; their conditions may differ. No end group written: not given here.
# Key:
# [1] = Plasma half-life in human; assay type: in vivo; conditions: intravenous, human equivalent concentrations, read-out: half-life of nerinetide
# From the text: Tat-NR2B9c has a plasma half-life in human plasma of about ten minutes. […] Alteplase (a recombinant form of tPA) has a half-life in human plasma of only about five minutes. But more significant for present purposes is the half-life of plasmin, which is induced by alteplase and other thrombolytic agents and is responsible for cleavage of Tat-NR2B9c. Plasmin has been reported to have a half-life in human plasma of about 4-8 hr.
# [2] = In-vitro effect of alteplase (rt-PA) on nerinetide content in rat plasma (HPLC); assay type: in vitro ADME; conditions: 65 ug/ml nerinetide, 37 C, alteplase added over 60 minutes (22.5 ug/ml, 3 times and 6 times)
# Experimental: A. LC/MS spectrum of nerinetide after incubation with plasmin in PBS. 10 uL aliquots of nerinetide (18 mg/mL) and plasmin (1 mg/mL) were incubated in 500 uL tubes of phosphate-buffered saline at 37 C for 5 min and the reaction stopped by cooling to −80C until tested. The various peaks correspond to the indicated fragments. Insert: Predicted trypsin cleavage sites and actual cleavage sites. (B,C) In-vitro effect of rt-PA on nerinetide content in rat (B) and human (C) plasma. Nerinetide was spiked into the plasma samples at t=0 at a concentration of 65 ug/ml, whereas alteplase (rt-PA) was administered as a 60 min infusion at the indicated concentration (D, E) In-vivo effect of the simultaneous administration of nerinetide and rt-PA on Cmax (D) and AUC (E) in the rat. The nerinetide bolus and alteplase (60 min infusion) were started simultaneously through two separate intravenous lines. Symbols represent mean±SD.
# The concentration of 65 ug/ml of nerinetide represents the theoretical peak concentration in a 75 kg person receiving 2.6 mg/kg dose as a bolus. Alteplase was added over 60 minutes to simulate the clinical dosing approach.
# [3] = tested on: transient middle cerebral artery occlusion (tMCAO); experiment: Dose-response study of nerinetide in transient middle cerebral artery occlusion; assay type: in vivo; conditions: rat tMCAo
# Experimental: FIGS. 9A-B: Nerinetide is effective over a dosage range of at least 0.025-25 mg/kg in a rat tMCAo model in (A) reducing infarction size and (B) reducing neurologic deficit.
# The cleavage of full-length nerinetide by high dose alteplase was incomplete, raising the possibility that some active drug could still remain to achieve neuroprotection. This was supported in rats by a dose-response study of nerinetide in a model of transient middle cerebral artery occlusion (tMCAO). Nerinetide and lodoxamide was administered to rats intravenously as a bolus injection, 60 minutes after tMCAo. […] Bars in A and represent mean±SD, with all individual data points plotted. […] Vehicle: PBS alone. Scrambled: ADA peptide incapable of binding PSD-95. Doses as low as 0.25 mg/kg produced a significant reduction in infarct volume (P=0.01) and an improvement in neurological function. Doses as low as 0.025 mg/kg were also effective. Doses up to at least 25 mg/kg were also effective with the highest efficacy being at about 15 mg/kg. The observed wide therapeutic range was attributable to nerinetide, and not to the mast cell degranulation inhibitor lodoxamide, which was present in all solutions to avoid potential hypotension due to histamine release.
# [4] = PK dose-separation study of nerinetide and alteplase in macaques; assay type: in vivo, cynomolgus macaques (Macaca fascicularis); conditions: macaque
# Experimental: We conducted further PK studies to probe the necessary dose-separation interval to mitigate degradation. These studies were conducted in cynomolgus macaques (Macaca fascicularis) to maximize their relevance to humans. Nerinetide was given as a 10-minute intravenous infusion at a dose of 2.6 mg/kg. This dosing regimen was neuroprotective in macaques exposed to stroke by LVO (Cook et al., Nature 483, 213-217 (2012)) and was used in both the Phase 2 ENACT trial (Lancet Neurol 11, 942-950 (2012)) and the ESCAPE-NA1 trial (Lancet 395, 878-887 (2020)). We examined the scenarios in which alteplase administration was started simultaneously with the nerinetide infusion start, at the end of the 10-minute nerinetide infusion, or 10 minutes after the end of nerinetide infusion. Alteplase (1 mg/kg) was administered through a separate intravenous line as a 10% bolus, followed by an infusion of the remaining 90% over 1 hour, as per its clinical use.
# [5] = Intrinsic fibrinolytic activity
# [6] = molecular target: second PDZ domain of PSD-95 protein (Homo sapiens, UniProt P78352); conditions: read-out: EC50 binding to second PDZ domain of PSD-95; cited from earlier work
# second PDZ domain of PSD-95 protein, sequence (P78352 160-246 limits assumed): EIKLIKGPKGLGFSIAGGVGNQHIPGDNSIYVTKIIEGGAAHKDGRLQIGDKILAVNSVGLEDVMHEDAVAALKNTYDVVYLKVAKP
# [7] = tested on: embolic middle cerebral artery occlusion (eMCAO)
# Experimental: Nerinetide (7.6 mg/kg) was administered as an intravenous bolus injection either 30 minutes before, or simultaneously with, the onset of a 60-minute infusion of rt-PA (5.4 mg/kg with a 10% bolus followed by 90% over 60 minutes). […] Experimental timeline. […] Hemispheric Infarct volume measurements 24 hours after eMCAo. […] Percentage of hemispheric brain swelling 24 hours after eMCAo and (D). Neurological scores 24 hours after eMCAo. Treatments were administered intravenously at the times indicated in (A). Bars represent mean±SD, with all individual data points plotted. Significant differences (in B) and (in C) are indicated with an asterisk when compared to the control group/nerinetide alone or with a number sign when compare to the thrombolytic agent (one-way ANOVA post hoc Tukey's correction for multiple comparisons test, *P<0.01 or #P <0.01, respectively) N=12-15 animals/group. Significant differences (in D) are indicated with an asterisk when compared to the control group/nerinetide alone or with a number sign when compare to the thrombolytic agent (Kruskal-Wallis analysis of variance on ranks with a post-hoc Dunn's correction for multiple comparisons test, *P<0.01 or #P<0.01, respectively).
# To test this, male Sprague-Dawley rats (10-12 weeks old; 270-310 g; Charles River, Montreal, QC, Canada) were subjected to embolic middle cerebral artery occlusion (eMCAO), produced by the introduction of an autologous blood thrombus into the middle cerebral artery. Reperfusion was achieved by treatment with intravenous alteplase at a total dose of 5.4 mg/kg beginning at 90 minutes after ischemia onset. Alteplase was administered using the human injection protocol in which 10% of the total dose is given as a bolus, with the remainder 90% of the dose being given over a 60-minute infusion. The dose of alteplase was 6 times the human dose, in anticipation that the rat fibrinolytic system may be less sensitive to human recombinant tPA. […] Nerinetide was administered either 30 minutes prior to, or concurrently with, the start of the alteplase administration (FIG. 7A) at a dose of 7.6 mg/kg. […] Infarct volumes, hemispheric swelling and neurological scores were evaluated at 24 hours.
# [8] = molecular target: protein-protein interactions of PSD-95 with N-Methyl-D-Aspartate glutamate receptors (NMDARs); conditions: read-out: IC50 perturbing PSD-95 interaction with NMDARs; cited from earlier work
# [9] = alteplase started at the end of the 10-minute nerinetide infusion
# [10] = nerinetide 2.6 mg/kg 10-minute iv infusion, alteplase 1 mg/kg started simultaneously
# [11] = nerinetide alone 7.6 mg/kg, 60 minutes after eMCAO, 24 hours
# [12] = nerinetide at 60 minutes followed by alteplase 30 minutes later, 24 hours
sequence,measurement,setting,value
YGRKKRRQRRRKLSSIESDV [nerinetide],half-life,[1],5 to 10 min
same,nerinetide content in rat plasma on addition of alteplase,[2],reduced the nerinetide content in rat plasma in a concentration-dependent manner
same,dose of highest efficacy,[3]; 24 hours,about 15 mg/kg
same,lowest dose also effective,"[3]; 24 hours, doses as low as",0.025 mg/kg
same,upper dose also effective,"[3]; 24 hours, doses up to at least",at least 25 mg/kg
same,dose producing significant reduction in infarct volume (P=0.01) and improvement in neurological function,"[3]; iv bolus with lodoxamide 60 minutes after tMCAo, 24 hours, doses as low as",0.25 mg/kg
same,effective dosage range (reducing infarction size and neurologic deficit),"[3]; iv bolus with lodoxamide 60 minutes after tMCAo, read 24 hours",0.025-25 mg/kg
same,degradation of Cmax or AUC of nerinetide by alteplase,[4]; alteplase 10 minutes after the end of the 10-min nerinetide infusion,eliminated degradation of Cmax or AUC by alteplase to within the margin of measurement error; also recorded: substantially reduces cleavage of nerinetide
same,reduction in the AUC of nerinetide,[4]; [9],32.3%
same,reduction of the Cmax of nerinetide,[4]; [9],23.1%
same,reduction in the AUC of nerinetide,[4]; [10],53.9%
same,reduction of the Cmax of nerinetide,[4]; [10],47.4%
same,intrinsic fibrinolytic activity,[5],does not have any intrinsic fibrinolytic activity
same,pEC50,[6],~8.15
same,beneficial effect of nerinetide on infarction volume,[7]; nerinetide administered concurrently with alteplase at 60 min after eMCAO,eliminated completely
same,infarction volume,[7]; [11],175±40 mm3
same,reduction of infarction volume,[7]; [11],59.2%
same,infarct volume reduction,[7]; nerinetide at 60 minutes followed by alteplase 30 minutes later,70%
same,hemispheric swelling,[7]; [12],reducing hemispheric swelling
same,neurological scores,[7]; [12],improving neurological scores
same,pIC50,[8],5.10 to 6.00
